According to patent US9573954B2, “Pyrazolopyrimidine compounds” (University Health Network, priority 2012, dated 2017):

Tests used:
[1] = system: ovarian cancer cells (PA-1); test: Cancer cell line growth inhibition, Sulforhodamine B assay, PA-1; type: cell-based; settings: 120 h; Table 2; PA-1, 5 days, SRB; read-out: Cancer Cell Line GI50 Range PA-1
Protocol: (§1) Breast cancer cells (MDA-MB-231 and MDA-MB-468), colon cancer cells (HCT116) and ovarian cancer cells (PA-1 and OVCAR-3) were seeded (1000 to 4000 in 80 μl per well depending on the cell growth rate) into 96 well plates 24 hours before compound overlay. Compounds were prepared as 10 mM stock solutions in 100% DMSO which were diluted with DMEM (Dulbecco's Modified Eagle's Medium) cell growth Medium (Invitrogen, Burlington, ON, Canada) containing 10% FBS (Fetal Bovine Serum) to concentrations ranging from 50 nM to 250 μM. Aliquots (20 μl) from each concentration were overlaid to 80 μl of the pre-seeded cells in the 96 well plates to make final concentrations of 10 nM to 50 μM. The cells were cultured for 5 days before the Sulforhodamine B assay (SRB) was performed to determine the compound's cell growth inhibition activity.
(§2) Sulforhodamine B (purchased from Sigma, Oakville, ON, Canada) is a water-soluble dye that binds to the basic amino acids of the cellular proteins. Thus, colorimetric measurement of the bound dye provides an estimate of the total protein mass that is related to the cell number. the cells are fixed in situ by gently aspirating off the culture media and adding 50 μl ice cold 10% Trichloroacetic Acid (TCA) per well and incubate at 4° C. for 30-60 min, The plates are washed with H2O five times and allowed to air dry for 5 min. Addition of 50 μl 0.4% (w/v) SRB solution in 1% (v/v) acetic acid to each well and incubation for 30 min at RT completes the staining reaction. Following staining, plates are washed four times with 1% acetic acid to remove unbound dye and then allowed to air dry for 5 min. The stain is solubilized with 100 μl of 10 mM Tris pH 10.5 per well. Absorbance is read at 570 nm.
(§3) The percentage (%) of relative growth inhibition was calculated by comparing to DMSO treated only cells (100%). GI50's were determined for compounds with cytotoxic activity. The GI50 was calculated using GraphPad PRISM software (GraphPad Software, Inc., San Diego, Calif., USA).
In Table 1 below, GI50 value ranges for compound examples against breast cancer cell lines (MDA-MB-468), colon cancer cell lines (HCT116) and ovarian cancer cell lines (PA-1) are given.
(§4) In Table 2 below, GI50 value ranges for compound examples against breast cancer cell lines (MDA-MB-231), colon cancer cell lines (HCT116) and ovarian cancer cell lines (PA-1) are given.

human TTK = molecular target: T1, human TTK (Homo sapiens, UniProt P33981); test: TTK inhibition assay (indirect ELISA); type: biochemical; settings: Table 2; 16 μM ATP (asterisk); read-out: TTK IC50 Range
T1 construct: Active TTK was purchased from Invitrogen as an amino terminal GST fusion of full length human TTK; purchased Invitrogen
T1 sequence (P33981 1-857): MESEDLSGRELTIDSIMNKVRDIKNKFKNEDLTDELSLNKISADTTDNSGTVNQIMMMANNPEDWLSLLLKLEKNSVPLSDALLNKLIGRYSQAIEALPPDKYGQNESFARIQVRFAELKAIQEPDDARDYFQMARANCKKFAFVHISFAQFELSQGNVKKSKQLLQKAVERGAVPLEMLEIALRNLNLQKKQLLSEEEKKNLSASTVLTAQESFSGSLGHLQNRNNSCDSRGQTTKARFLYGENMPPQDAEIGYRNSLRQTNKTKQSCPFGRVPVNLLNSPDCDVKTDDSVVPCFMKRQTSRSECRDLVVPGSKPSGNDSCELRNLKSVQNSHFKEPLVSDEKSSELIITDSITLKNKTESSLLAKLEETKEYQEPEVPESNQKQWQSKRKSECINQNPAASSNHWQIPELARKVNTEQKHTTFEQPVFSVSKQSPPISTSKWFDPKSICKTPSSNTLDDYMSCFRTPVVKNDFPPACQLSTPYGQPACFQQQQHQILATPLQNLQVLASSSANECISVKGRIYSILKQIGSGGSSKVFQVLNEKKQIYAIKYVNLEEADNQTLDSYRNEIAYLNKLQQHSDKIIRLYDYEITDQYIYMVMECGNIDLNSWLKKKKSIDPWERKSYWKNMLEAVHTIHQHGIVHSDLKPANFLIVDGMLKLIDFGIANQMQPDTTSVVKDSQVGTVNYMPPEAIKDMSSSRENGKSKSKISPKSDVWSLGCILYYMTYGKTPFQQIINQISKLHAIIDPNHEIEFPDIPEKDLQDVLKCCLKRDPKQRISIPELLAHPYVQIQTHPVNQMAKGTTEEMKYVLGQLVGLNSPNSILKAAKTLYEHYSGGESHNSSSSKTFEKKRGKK
Outline: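 Activity detected by indirect ELISA after compounds sat with full-length GST-TTK for 5 min prior to starting the reaction with ATP. IC50 came from a four-parameter logistic curve of % inhibition, calculated against background and uninhibited control wells.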

[2] = system: breast cancer cells (MDA-MB-231); test: Cancer cell line growth inhibition, Sulforhodamine B assay, MDA-MB-231; type: cell-based; settings: Homo sapiens, 120 h; Table 2; MDA-MB-231, 5 days, SRB; read-out: Cancer Cell Line GI50 Range MDA-MB-231
Protocol: as §1, §2, §3, §4

[3] = system: colon cancer cells (HCT116); test: Cancer cell line growth inhibition, Sulforhodamine B assay, HCT116; type: cell-based; settings: Homo sapiens, HCT-116, 120 h, Table 2; HCT116, 5 days, SRB; read-out: Cancer Cell Line GI50 Range HCT116
Outline: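 GI50 is calculated from growth inhibition relative to DMSO controls, using TCA-fixed, SRB-stained protein mass read at 570 nm. Compound, 10 nM–50 μM final in 10% FBS DMEM, was applied for 5 days to HCT116 cells that had been plated 24 h before at 1000–4000/well.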

[4] = system: Ovarian 2393A tumor initiating cells; test: Tumor-initiating cell growth inhibition, Alamar Blue assay, ovarian TICs; type: cell-based; settings: 144 h; Table 2; ovarian TICs, 6 days, Alamar Blue; read-out: Tumor Initiating Cell GI50 Range Ovarian 2393A
Outline: (§5)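 Colon TICs (4,000/well, non-TC plates) and ovarian TICs (1,000/well, TC plates) kept in serum-free DMEM:F12 with B-27, heparin, bFGF and EGF. Compound added after 24 h at 0.1% DMSO, then 9 days (colon) or 6 days (ovarian) at 37° C. GI50 from Alamar Blue fluorescence (ex 544/em 590) after 4 h.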

[5] = system: Colon 12 tumor initiating cells; test: Tumor-initiating cell growth inhibition, Alamar Blue assay, colon TICs; type: cell-based; settings: 216 h; Table 2; colon TICs, 9 days, Alamar Blue; read-out: Tumor Initiating Cell GI50 Range Colon 12
Outline: as §5

SMILES	GI50 [1]	IC50 (human TTK)	GI50 [2]	GI50 [3]	GI50 [4]	GI50 [5]
CCC(CO)Nc1cc(NCC2CCOCC2)n2ncc(-c3ccc(C(=O)NC4CC4)c(C)c3)c2n1 (stereo in doubt) [Example B29, (R)-N-cyclopropyl-4-(5-((1-hydroxybutan-2-yl)amino)-7-(((tetrahydro-2H-pyran-4-yl)methyl)amino)pyrazolo[1,5-a]pyrimidin-3-yl)-2-methylbenzamide]	100 to 500 nM	< 100 nM	> 500 nM	100 to 500 nM	> 500 nM	100 to 500 nM
Cc1cc(-c2cnn3c(NCC4CCOCC4)cc(Oc4ccccc4)nc23)ccc1C(=O)NC1CC1 [Example B1]	≤ 100 nM	< 100 nM	≤ 100 nM	≤ 100 nM	≤ 100 nM	≤ 100 nM
COCCNc1cc(Oc2ccccc2)nc2c(-c3ccc(C(=O)NC4CC4)cc3)cnn12 [Example B2, N-cyclopropyl-4-(7-((2-methoxyethyl)amino)-5-phenoxypyrazolo[1,5-a]pyrimidin-3-yl)benzamide]	100 to 500 nM	< 100 nM	> 500 nM	> 500 nM	> 500 nM	100 to 500 nM
O=C(NC1CC1)c1ccc(-c2cnn3c(NCC4CCOCC4)cc(Oc4ccccc4)nc23)cc1 [Example B3, N-cyclopropyl-4-(5-phenoxy-7-(((tetrahydro-2H-pyran-4-yl)methyl)amino)pyrazolo[1,5-a]pyrimidin-3-yl)benzamide]	≤ 100 nM	< 100 nM	100 to 500 nM	≤ 100 nM	100 to 500 nM	100 to 500 nM
Cc1cc(-c2cnn3c(NCCN4CCOCC4)cc(Oc4ccccc4)nc23)ccc1C(=O)NC1CC1 [Example B5, N-cyclopropyl-2-methyl-4-(7-((2-morpholinoethyl)amino)-5-phenoxypyrazolo[1,5-a]pyrimidin-3-yl)benzamide]	≤ 100 nM	< 100 nM	≤ 100 nM	≤ 100 nM	≤ 100 nM	≤ 100 nM
O=C(NC1CC1)c1ccc(-c2cnn3c(NCCN4CCOCC4)cc(Oc4ccccc4)nc23)cc1 [Example B6, N-cyclopropyl-4-(7-((2-morpholinoethyl)amino)-5-phenoxypyrazolo[1,5-a]pyrimidin-3-yl)benzamide]	≤ 100 nM	< 100 nM	100 to 500 nM	100 to 500 nM	100 to 500 nM	100 to 500 nM
O=C(NC1CC1)c1ccc(-c2cnn3c(NCC4CCOCC4)cc(Oc4ccccc4)nc23)cc1Cl [Example B7, 2-chloro-N-cyclopropyl-4-(5-phenoxy-7-(((tetrahydro-2H-pyran-4-yl)methyl)amino)pyrazolo[1,5-a]pyrimidin-3-yl)benzamide]	≤ 100 nM	< 100 nM	≤ 100 nM	≤ 100 nM	≤ 100 nM	≤ 100 nM
O=C(NC1CC1)c1ccc(-c2cnn3c(NCC4CCOCC4)cc(Oc4ccccc4)nc23)cc1F [Example B8, N-cyclopropyl-2-fluoro-4-(5-phenoxy-7-(((tetrahydro-2H-pyran-4-yl)methyl)amino)pyrazolo[1,5-a]pyrimidin-3-yl)benzamide]	≤ 100 nM	< 100 nM	100 to 500 nM	100 to 500 nM	100 to 500 nM	100 to 500 nM
Cc1cc(-c2cnn3c(NCC4CCOCC4)cc(Oc4cccnc4)nc23)ccc1C(=O)NC1CC1 [Example B9, N-cyclopropyl-2-methyl-4-(5-(pyridin-3-yloxy)-7-(((tetrahydro-2H-pyran-4-yl)methyl)amino)pyrazolo[1,5-a]pyrimidin-3-yl)benzamide]	≤ 100 nM	< 100 nM	≤ 100 nM	≤ 100 nM	≤ 100 nM	≤ 100 nM
Cc1cc(-c2cnn3c(NCC4CCOCC4)cc(Oc4cccc(F)c4)nc23)ccc1C(=O)NC1CC1 [Example B12, N-cyclopropyl-4-(5-(3-fluorophenoxy)-7-(((tetrahydro-2H-pyran-4-yl)methyl)amino)pyrazolo[1,5-a]pyrimidin-3-yl)-2-methylbenzamide]	≤ 100 nM	< 100 nM	≤ 100 nM	≤ 100 nM	≤ 100 nM	≤ 100 nM
COCCNc1cc(Oc2ccccc2)nc2c(-c3ccc(C(=O)NC4CC4)c(C)c3)cnn12 [Example B13, N-cyclopropyl-4-(7-((2-methoxyethyl)amino)-5-phenoxypyrazolo[1,5-a]pyrimidin-3-yl)-2-methylbenzamide]	≤ 100 nM	< 100 nM	≤ 100 nM	≤ 100 nM	100 to 500 nM	≤ 100 nM
Cc1cc(-c2cnn3c(NCC4CCOCC4)cc(NC4CCCC4)nc23)ccc1C(=O)NC1CC1 [Example B14, 4-(5-(cyclopentylamino)-7-(((tetrahydro-2H-pyran-4-yl)methyl)amino)pyrazolo[1,5-a]pyrimidin-3-yl)-N-cyclopropyl-2-methylbenzamide]	≤ 100 nM	< 100 nM	≤ 100 nM	≤ 100 nM	≤ 100 nM	≤ 100 nM
Cc1cc(-c2cnn3c(NCC(C)C)cc(NC4CCOCC4)nc23)ccc1C(=O)NC1CC1 [Example B26, N-cyclopropyl-4-(7-(isobutylamino)-5-((tetrahydro-2H-pyran-4-yl)amino)pyrazolo[1,5-a]pyrimidin-3-yl)-2-methylbenzamide]	≤ 100 nM	< 100 nM	100 to 500 nM	≤ 100 nM	–	–
Cc1cc(-c2cnn3c(NC[C@H]4CC[C@H](O)CC4)cc(Oc4ccccc4)nc23)ccc1C(=O)NC1CC1 [Example B31, N-cyclopropyl-4-(7-((((1r,4r)-4-hydroxycyclohexyl)-methyl)amino)-5-phenoxypyrazolo[1,5-a]pyrimidin-3-yl)-2-methylbenzamide]	≤ 100 nM	< 100 nM	≤ 100 nM	≤ 100 nM	–	–
